# Laboratory results reported in ChEMBL document CHEMBL3425490, “Activity of lipo-cyclic γ-AApeptides against biofilms of Staphylococcus epidermidis and Pseudomonas aeruginosa” (Bioorg Med Chem Lett, 2015).
# Active and inactive are the calls of the source. No cut-off for these calls is given here.
# Tests used:
# [1] = tested on: Staphylococcus epidermidis; assay: Inhibition of biofilm formation of methicillin-resistant Staphylococcus epidermidis ATCC 35984 after 24 hrs by crystal violet staining-based assay relative to control; format: functional, RP62A
# [2] = tested on: Staphylococcus epidermidis; assay: Antibacterial activity against methicillin-resistant Staphylococcus epidermidis ATCC 35984 after 18 hrs by broth microdilution method; format: functional; conditions: RP62A
# [3] = tested on: Pseudomonas aeruginosa; assay: Inhibition of biofilm formation of Pseudomonas aeruginosa ATCC 27853 after 24 hrs by crystal violet staining-based assay; format: functional
# [4] = Hemolytic activity in human RBC after 1 hr; format: ADME, cell-based, Erythrocyte; conditions: red blood cells (RBC)
# [5] = tested on: Staphylococcus epidermidis; assay: Bactericidal activity against methicillin-resistant Staphylococcus epidermidis ATCC 35984 assessed as decrease in log10CFU/ml at 12.5 to 50 ug/ml incubated for 6 hrs followed by plating measured after 24 hrs relative to control; format: functional; conditions: for Activity: RP62A
# [6] = tested on: Pseudomonas aeruginosa; assay: Antibacterial activity against Pseudomonas aeruginosa ATCC 27853 after 18 hrs by broth microdilution method; format: functional; conditions: ATCC 27853, 18 h
# [7] = tested on: Staphylococcus epidermidis; assay: Induction of pre-existing methicillin-resistant Staphylococcus epidermidis ATCC 35984 biofilm detachment after 24 hrs by crystal violet staining-based assay relative to control; format: functional, RP62A; set-up: concentration or dose not given beside the values
# [8] = tested on: Pseudomonas aeruginosa; assay: Bactericidal activity against Pseudomonas aeruginosa ATCC 27853 assessed as decrease in log10CFU/ml at 12.5 to 50 ug/ml incubated for 6 hrs followed by plating measured after 24 hrs relative to control; format: functional
# [9] = tested on: Pseudomonas aeruginosa; assay: Induction of pre-existing Pseudomonas aeruginosa ATCC 27853 biofilm detachment after 24 hrs by crystal violet staining-based assay relative to control; format: functional; set-up: concentration or dose not given beside the values
# [10] = tested on: Pseudomonas aeruginosa; assay: microbe, parasite or virus in culture; conditions: 8545
# Description: Antibacterial activity against Pseudomonas aeruginosa 8545 by macrobroth dilution method
# [11] = tested on: Pseudomonas aeruginosa; assay: microbe, parasite or virus in culture; conditions: 11683
# Description: Antibacterial activity against Pseudomonas aeruginosa 11683 by macrobroth dilution method
# [12] = tested on: Staphylococcus epidermidis; assay: microbe, parasite or virus in culture; conditions: RP62A
# Description: Antibacterial activity against oxacillin-resistant Staphylococcus epidermidis ATCC 35984
# [13] = tested on: Pseudomonas aeruginosa; assay: microbe, parasite or virus in culture; conditions: 5761
# Description: Antibacterial activity against Pseudomonas aeruginosa 5761 by macrobroth dilution method
# [14] = tested on: Staphylococcus epidermidis; assay: microbe, parasite or virus in culture; conditions: RP62A; remark: listed apart in the source
# Description: Antibacterial activity against oxacillin-susceptible Staphylococcus epidermidis ATCC 35984
# [15] = tested on: Staphylococcus epidermidis; assay: Inhibition of biofilm formation of methicillin-resistant Staphylococcus epidermidis ATCC 35984 at 6.25 to 12.56 after 24 hrs by crystal violet staining-based assay relative to control; format: functional, RP62A
# [16] = tested on: Pseudomonas aeruginosa; assay: Inhibition of biofilm formation of Pseudomonas aeruginosa ATCC 27853 at 6.25 to 12.56 after 24 hrs by crystal violet staining-based assay relative to control; format: functional
Structure (SMILES),inhibition (INH) [1] [%],MIC [2] [µM],inhibition (INH) [3] [%],HC50 at 1 h [4] [µM],Activity [5],MIC [6] [µM],Activity [7] [%],Activity [8],Activity [9] [%],inhibition ([1]; RP62A),MIC [10] [µg/mL],inhibition [3],MIC [11] [µg/mL],MIC [12] [µg/mL],MIC [13] [µg/mL],MIC [14] [µg/mL],inhibition (INH) [15] [%],deltalog10CFU [5],deltalog10CFU [8],inhibition (INH) [16] [%]
CCCCCCCCCCCCCCCC(=O)N(CC(N)=O)C[C@H](CCCCN)NC(=O)CN1C[C@H](Cc2ccccc2)NC(=O)CN(C(=O)CCc2ccccc2)C[C@H](CCCCN)NC(=O)CN(C(=O)CCc2ccccc2)C[C@H](CCCCN)NC(=O)CN(C(=O)CCc2ccccc2)C[C@H](CCCCN)NC(=O)CN(C(=O)CCc2ccccc2)C[C@H](CCCCN)NC(=O)CCC1=O,40,13,60,130,Active,13,10,Active,50,,,,,,,,,,,
CCCCCCCCCCCCCCCC(=O)N(CC(N)=O)C[C@H](CCCCN)NC(=O)CN1C[C@H](Cc2ccccc2)NC(=O)CN(C(=O)CCc2ccccc2)C[C@H](CCCCN)NC(=O)CN(C(=O)CCCN)C[C@H](Cc2ccccc2)NC(=O)CN(C(=O)CCc2ccccc2)C[C@H](CCCCN)NC(=O)CCC1=O,40,3,60,114,Active,6,10,Active,50,,,,,,,,,,,
O=C(O)c1cn(C2CC2)c2cc(N3CCNCC3)c(F)cc2c1=O [CIPROFLOXACIN],,,,,Active,,30,Active,50,Active,0.09,Active,0.09,0.12,0.09,0.12,,,,
CCCCCCCCCCCCCCCC(=O)N(CC(N)=O)C[C@H](CCCCN)NC(=O)CN1C[C@H](Cc2ccccc2)NC(=O)CN(C(=O)CCCN)C[C@H](Cc2ccccc2)NC(=O)CN(C(=O)CCCN)C[C@H](Cc2ccccc2)NC(=O)CN(C(=O)CCc2ccccc2)C[C@H](CCCCN)NC(=O)CCC1=O,,0.6,,129,,6,,,,,,,,,,,,,,
CCCCCCCCCCCCCCCC(=O)N(CC(N)=O)C[C@H](CCCCN)NC(=O)CN1C[C@H](Cc2ccccc2)NC(=O)CN(C(=O)CCc2ccccc2)C[C@H](CCCCN)NC(=O)CN(C(=O)CCCN)C[C@H](Cc2ccccc2)NC(=O)CN(C(=O)CCCN)C[C@H](Cc2ccccc2)NC(=O)CN(C(=O)CCc2ccccc2)C[C@H](CCCCN)NC(=O)CCC1=O,40,3,60,82,,14,10,,50,,,,,,,,,,,
CCCCCCCCCCCCCCCC(=O)N(CC(N)=O)C[C@H](CCCCN)NC(=O)CN1C[C@H](Cc2ccccc2)NC(=O)CN(C(=O)CCc2ccccc2)C[C@H](CCCCN)NC(=O)CN(C(=O)CCc2ccccc2)C[C@H](CCCCN)NC(=O)CN(C(=O)CCc2ccccc2)C[C@H](CCCCN)NC(=O)CCC1=O,40,1,60,160,,12,10,,60,,,,,,,,,,,
CCCCCCCCCCCCCCCC(=O)N(CC(N)=O)C[C@H](CCCCN)NC(=O)CN1C[C@H](Cc2ccccc2)NC(=O)CN(C(=O)CCCN)C[C@H](Cc2ccccc2)NC(=O)CN(C(=O)CCCN)C[C@H](Cc2ccccc2)NC(=O)CN(C(=O)CCCN)C[C@H](Cc2ccccc2)NC(=O)CCC1=O,,0.6,,65,,3,30,,50,,,,,,,,70,8,6,80
